Our source for the Ki values is US20260242353A1, “HETEROARYL DERIVATIVES AS DDRs INHIBITORS” (CHIESI FARMACEUTICI S.P.A., priority 2022, published 2026).

A word on the pKi: it is the negative decadic logarithm of the Ki, by convention in mol/L.

Each structure is given as a SMILES string. pKi: −log10 of the molar value.

The target of one test is T1, DDR1 (Homo sapiens, UniProt Q08345).
T1 construct: purchased Carna Biosciences
Description: LanthaScreen Europium Kinase Binding assay, DDR1. As to conditions: 5 nM DDR1, 20 nM Kinase Tracer 178, 1 h at rt; Ki from IC50 by Cheng-Prusoff; read-out: Ki DDR1. On the procedure:
(§1) DDR1 and DDR2 binding assays were performed using Life Technologies LanthaScreen™ Europium Kinase Binding assay. The compounds were incubated with 5 nM DDR1 (Carna Biosciences) or 5 nM DDR2 (Life Technologies) for 1 h at rt in white 384-well OptiPlate (PerkinElmer), containing 20 nM or 10 nM Kinase Tracer 178 respectively and 2 nM Europium labelled anti-GST antibody (Life Technologies) in assay buffer (50 mM HEPES pH 7.5, 10 mM MgCI2, 1 mM EGTA and 0.01% BRIJ35). The ratio of fluorescence emission 665 nm/615 nm after excitation at 340 nm was obtained using the Tecan Spark 20M plate reader. IC50 values were determined in GraphPad Prism 7.0 software, using 4 parameter model: log(inhibitor) vs. response. IC50 values were converted in Ki using the Cheng-Prusoff equation (Ki=IC50/(1+[Tracer]/Kd).
Background: Time-resolved FRET reads energy transfer from a long-lived donor to a nearby acceptor.

The target in the next test is T2, DDR2 (Homo sapiens, UniProt Q16832).
T2 construct: purchased Life Technologies
T2 sequence (Q16832 22-855): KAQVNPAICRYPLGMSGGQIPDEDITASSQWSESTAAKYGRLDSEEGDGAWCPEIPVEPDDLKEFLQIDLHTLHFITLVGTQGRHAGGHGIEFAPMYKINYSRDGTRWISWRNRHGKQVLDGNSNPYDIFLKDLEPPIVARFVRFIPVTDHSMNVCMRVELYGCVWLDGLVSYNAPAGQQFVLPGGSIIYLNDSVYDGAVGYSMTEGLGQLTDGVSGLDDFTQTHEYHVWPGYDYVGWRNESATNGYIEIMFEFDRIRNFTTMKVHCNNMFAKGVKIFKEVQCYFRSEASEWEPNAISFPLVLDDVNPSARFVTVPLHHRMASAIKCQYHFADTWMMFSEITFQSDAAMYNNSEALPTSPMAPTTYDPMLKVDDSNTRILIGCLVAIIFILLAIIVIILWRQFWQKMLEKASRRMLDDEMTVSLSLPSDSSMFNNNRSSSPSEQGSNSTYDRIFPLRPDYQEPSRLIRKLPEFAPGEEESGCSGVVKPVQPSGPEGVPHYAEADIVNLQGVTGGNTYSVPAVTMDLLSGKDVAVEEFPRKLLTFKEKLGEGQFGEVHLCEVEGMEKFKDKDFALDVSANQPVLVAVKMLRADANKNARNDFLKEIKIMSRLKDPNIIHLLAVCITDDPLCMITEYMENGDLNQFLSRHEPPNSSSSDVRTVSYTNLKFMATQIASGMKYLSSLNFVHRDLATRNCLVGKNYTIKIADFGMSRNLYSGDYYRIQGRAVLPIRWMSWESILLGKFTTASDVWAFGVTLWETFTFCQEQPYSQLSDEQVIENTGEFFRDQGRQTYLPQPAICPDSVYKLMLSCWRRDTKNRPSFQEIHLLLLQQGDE
Description: LanthaScreen Europium Kinase Binding assay, DDR2. The conditions noted are these: 5 nM DDR2, 10 nM Kinase Tracer 178, 1 h at rt; Ki from IC50 by Cheng-Prusoff; read-out: Ki DDR2. On the procedure:
as §1

T1 sequence (Q08345 19-913): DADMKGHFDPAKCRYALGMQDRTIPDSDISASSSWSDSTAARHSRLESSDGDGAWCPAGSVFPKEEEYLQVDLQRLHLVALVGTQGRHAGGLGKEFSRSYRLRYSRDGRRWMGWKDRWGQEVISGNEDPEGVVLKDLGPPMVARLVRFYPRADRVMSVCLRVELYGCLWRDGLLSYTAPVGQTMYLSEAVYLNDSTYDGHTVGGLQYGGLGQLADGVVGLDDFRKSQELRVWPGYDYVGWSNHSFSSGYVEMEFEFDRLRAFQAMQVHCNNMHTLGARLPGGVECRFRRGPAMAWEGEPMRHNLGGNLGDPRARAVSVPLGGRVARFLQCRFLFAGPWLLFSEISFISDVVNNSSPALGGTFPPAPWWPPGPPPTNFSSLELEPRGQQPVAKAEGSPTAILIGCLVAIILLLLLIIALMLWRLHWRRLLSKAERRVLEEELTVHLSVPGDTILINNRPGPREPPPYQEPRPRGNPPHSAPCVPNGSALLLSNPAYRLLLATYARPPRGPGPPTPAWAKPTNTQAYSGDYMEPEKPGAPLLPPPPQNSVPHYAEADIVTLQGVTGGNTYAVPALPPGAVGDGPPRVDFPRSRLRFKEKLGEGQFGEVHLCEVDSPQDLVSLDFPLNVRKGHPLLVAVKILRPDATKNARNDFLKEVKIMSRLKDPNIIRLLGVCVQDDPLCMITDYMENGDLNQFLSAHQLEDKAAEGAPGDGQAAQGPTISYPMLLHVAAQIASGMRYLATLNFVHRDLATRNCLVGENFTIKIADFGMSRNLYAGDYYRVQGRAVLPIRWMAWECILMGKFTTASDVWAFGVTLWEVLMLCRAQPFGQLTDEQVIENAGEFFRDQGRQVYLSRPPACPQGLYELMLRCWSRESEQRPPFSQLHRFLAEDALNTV

`Cc1ccc(C(=O)Nc2cncc(C(F)(F)F)c2)cc1[C@@H]1CCN(c2ncnc3[nH]ncc23)C1` [Example 129, (S)-3-(1-(1H-pyrazolo[3,4-d]pyrimidin-4-yl)pyrrolidin-3-yl)-4-methyl-N-(5-(trifluoromethyl)pyridin-3-yl)benzamide]: the pKi at DDR1 and on DDR2 was above 8.30 throughout.
For the molecule `O=C(Nc1cncc(C(F)(F)F)c1)c1ccc(C(F)F)c(C2CCN(c3cncnc3)C2)c1` (single isomer, unassigned) [Example 121], the pKi on DDR1 and on DDR2 was above 8.30 each time.
Consider `Cc1ccc(C(=O)Nc2cncc(OC(F)(F)F)c2)cc1[C@@H]1CCN(c2cnn3ccncc23)C1` [Example 98, (S)-4-methyl-3-(1-(pyrazolo[1,5-a]pyrazin-3-yl)pyrrolidin-3-yl)-N-(5-(trifluoromethoxy)pyridin-3-yl)benzamide], for which the pKi on DDR1 and on DDR2 was above 8.30 throughout.
As for `COc1ccc(C(=O)Nc2cncc(C(F)(F)F)c2)cc1C1CCN(c2cncnc2)C1` (single isomer, unassigned) [Example 110, 4-methoxy-3-(1-(pyrimidin-5-yl)pyrrolidin-3-yl)-N-(5-(trifluoromethyl)pyridin-3-yl)benzamide], the values for the pKi at DDR1 and at DDR2 were above 8.30 and 7.60 to 8.30, respectively.
Consider `Cc1ccc(C(=O)Nc2cc(C(C)(C)C(F)(F)F)on2)cc1[C@@H]1CCN(c2cnccc2C#N)C1` [Example 55, (S)-3-(1-(4-cyanopyridin-3-yl)pyrrolidin-3-yl)-4-methyl-N-(5-(1,1,1-trifluoro-2-methylpropan-2-yl)isoxazol-3-yl)benzamide], for which the pKi on DDR1 and at DDR2 was above 8.30 throughout.
As for `Cc1ccc(C(=O)Nc2cc(OC(F)F)ccn2)cc1[C@@H]1CCN(c2cncc(C#N)n2)C1` [Example 94, (S)-3-(1-(6-cyanopyrazin-2-yl)pyrrolidin-3-yl)-N-(4-(difluoromethoxy)pyridin-2-yl)-4-methyl-benzamide], the pKi at DDR1 is above 8.30; at DDR2 it was 7.60 to 8.30.
On the same counts, the results for `Cc1ccc(C(=O)Nc2cncc(C(F)(F)F)c2)cc1N1CC(Oc2ccc(N)nc2)C1` [Example 44, 3-(3-((6-aminopyridin-3-yl)oxy)azetidin-1-yl)-4-methyl-N-(5-(trifluoromethyl)pyridin-3-yl)benzamide] are 7.60 to 8.30 and 7.00 to 7.60.
As for `Cc1ccc(C(=O)Nc2cncc(C(F)(F)F)c2)cc1[C@@H]1CCN(c2cnc3ccccn23)C1` [Example 71, (S)-3-(1-(imidazo[1,2-a]pyridin-3-yl)pyrrolidin-3-yl)-4-methyl-N-(5-(trifluoromethyl)pyridin-3-yl)benzamide], the pKi at DDR1 and on DDR2 was above 8.30 throughout.
With `CCc1cc(NC(=O)c2ccc(C)c([C@@H]3CCN(c4cncnc4)C3)c2)no1` [Example 69, (S)-N-(5-ethylisoxazol-3-yl)-4-methyl-3-(1-(pyrimidin-5-yl)pyrrolidin-3-yl)benzamide], the figures for the pKi on DDR1 and at DDR2 were above 8.30 and 7.60 to 8.30, respectively.
Taken in the same sequence, the figures for `Cc1ccc(C(=O)Nc2cncc(C(F)(F)F)c2)cc1[C@H]1CCN(c2cncc(C(N)=O)c2)C1` [Example 2, (R)-5-(3-(2-methyl-5-((5-(trifluoromethyl)pyridin-3-yl)carbamoyl)phenyl)pyrrolidin-1-yl)nicotinamide] were above 8.30 and 7.60 to 8.30.
On to `Cc1ccc(C(=O)Nc2cncc(C(F)(F)F)c2)cc1[C@@H]1CN(c2cncnc2)C[C@H]1O` (racemic) [Example 105, 3-((3S,4R)-3-(4-hydroxy-1-(pyrimidin-5-yl)pyrrolidin-3-yl)-4-methyl-N-(5-(trifluoromethyl)pyridin-3-yl)benzamide and 3-((3R,4S)-4-hydroxy-1-(pyrimidin-5-yl)pyrrolidin-3-yl)-4-methyl-N-(5-(trifluoromethyl)pyridin-3-yl)benzamide], for which the pKi is above 8.30 on DDR1 and 7.60 to 8.30 on DDR2.
